# Test results: ChEMBL document CHEMBL1130994, “3-trifluoromethylcarbacephems: synthesis of broad spectrum antibacterial compounds” (1998)
# Columns and labels:
# [1] = test system: Staphylococcus aureus; test: Compound was evaluated for inhibitory activity against X400S Staphylococcus aureus methicillin resistant and macrolide resistant; type: functional
# [2] = test system: Klebsiella aerogenes; test: Compound was evaluated for inhibitory activity against EB17 Enterobacter aerogenes; type: functional
# [3] = test system: Enterobacter cloacae; test: Compound was evaluated for inhibitory activity against EB5 Enterobacter cloacae; type: functional
# [4] = test system: Enterococcus faecalis; test: Compound was evaluated penicillin susceptible; type: functional
# [5] = test system: Serratia; test: Compound was evaluated for inhibitory activity against SE3 Serratia; type: functional
# [6] = test system: Providencia stuartii; test: Compound was evaluated for inhibitory activity against PR33 Providencia stuartii; type: functional
# [7] = test system: Staphylococcus aureus; test: Compound was evaluated for inhibitory activity against S13E Staphylococcus aureus methicillin resistant penicillin resistant macrolide sensitive (PBP2a producer); type: functional
# [8] = test system: Klebsiella aerogenes; test: Compound was evaluated for inhibitory activity against C32 Enterobacter aerogenes; type: functional
# [9] = test system: Providencia rettgeri; test: Compound was evaluated for inhibitory activity against C24 Providencia rettgeri; type: functional
# [10] = test system: Streptococcus pneumoniae; test: Compound was evaluated for inhibitory activity against Park S Streptococcus pneumoniae; type: functional
# [11] = test system: Klebsiella pneumoniae; test: Compound was evaluated for inhibitory activity against KAE Klebsiella pneumoniae; type: functional
# [12] = test system: Serratia; test: Compound was evaluated for inhibitory activity against X99 Serratia; type: functional
# [13] = test system: Streptococcus pyogenes; test: Compound was evaluated for inhibitory activity against C203 Streptococcus pyogenes Gp.A; type: functional
# [14] = test system: Enterobacter cloacae; test: Compound was evaluated for inhibitory activity against 265a Enterobacter cloacae beta-lactamase; type: functional
# [15] = test system: Haemophilus influenzae; test: Compound was evaluated for inhibitory activity against 76 Haemophilus influenzae beta-lactamase; type: functional
# [16] = test system: Staphylococcus aureus; test: Compound was evaluated for inhibitory activity against X1.1 Staphylococcus aureus penicillin sensitive; type: functional
# [17] = test system: Salmonella; test: Compound was evaluated for inhibitory activity against X514 Salmonella; type: functional
# [18] = test system: Escherichia coli; test: Compound was evaluated for inhibitory activity against EC14 Escherichia coli sensitive; type: functional
# [19] = test system: Haemophilus influenzae; test: Compound was evaluated for inhibitory activity against C.L Haemophilus influenzae ampicillin sensitive; type: functional
# [20] = test system: Morganella morganii; test: Compound was evaluated for inhibitory activity against PR15 Morganella morganii; type: functional
# [21] = test system: Acinetobacter; test: Compound was evaluated for inhibitory activity against AC12 Acinetobacter; type: functional
# [22] = test system: Citrobacter; test: Compound was evaluated for inhibitory activity against CF17 Citrobacter; type: functional
# [23] = test system: Klebsiella pneumoniae; test: Compound was evaluated for inhibitory activity against X26 Klebsiella pneumoniae; type: functional
# [24] = test system: Escherichia coli; test: Compound was evaluated for inhibitory activity against TEM Escherichia coli beta-lactamase; type: functional
# [25] = test system: Salmonella; test: Compound was evaluated for minimum inhibitory concentration against X514 Salmonella; type: functional
# [26] = test system: Enterococcus faecalis; test: Compound was evaluated for inhibitory activity against 2041 Enterococcus faecalis Gp.D streptococcus penicillin susceptible; type: functional
# [27] = test system: Streptococcus pyogenes; test: Compound was evaluated for inhibitory activity against C203 Streptococcus pyogenes Gp.A; No growth; type: functional, organism-based
# [28] = test system: Streptococcus pneumoniae; test: Compound was evaluated for inhibitory activity against Park S Streptococcus pneumoniae; No growth; type: functional, organism-based
SMILES,MIC [1],MIC [2],MIC [3],MIC [5],MIC [6],MIC [7],MIC [8],MIC [9],MIC [11],MIC [12],MIC [14],MIC [15],MIC [16],MIC [18],MIC [19],MIC [20],MIC [21],MIC [22],MIC [23],MIC [24],further results
N[C@@H](C(=O)N[C@@H]1C(=O)N2C(C(=O)O)=C(C(F)(F)F)CC[C@H]12)c1ccc(O)cc1,64 µM,0.5 µM,1 µM,16 µM,1 µM,32 µM,0.25 µM,4 µM,1 µM,2 µM,1 µM,0.5 µM,0.5 µM,0.25 µM,0.5 µM,16 µM,16 µM,4 µM,0.06 µM,0.5 µM,MIC [4]: 32 µM; MIC [10]: 0.25 µM; MIC [13]: 0.06 µM; MIC [17]: 0.06 µM
N[C@@H](C(=O)N[C@@H]1C(=O)N2C(C(=O)O)=C(C(F)(F)F)CC[C@H]12)c1ccc(F)cc1,64 µM,8 µM,8 µM,32 µM,8 µM,32 µM,8 µM,8 µM,8 µM,16 µM,8 µM,1 µM,1 µM,1 µM,0.5 µM,16 µM,64 µM,8 µM,0.5 µM,1 µM,MIC [10]: 0.25 µM; MIC [25]: 0.5 µM; MIC [13]: 0.06 µM; MIC [26]: 32 µM
N[C@@H](C(=O)N[C@@H]1C(=O)N2C(C(=O)O)=C(C(F)(F)F)CC[C@H]12)c1cccc(C(F)(F)F)c1,16 µM,128 µM,4 µM,128 µM,32 µM,16 µM,128 µM,64 µM,64 µM,128 µM,128 µM,1 µM,2 µM,8 µM,1 µM,32 µM,32 µM,128 µM,1 µM,16 µM,MIC [10]: 0.13 µM; MIC [26]: 16 µM; MIC [17]: 32 µM; MIC [27]: No growth
CCS(=O)(=O)Nc1cccc([C@@H](N)C(=O)N[C@@H]2C(=O)N3C(C(=O)O)=C(C(F)(F)F)CC[C@H]23)c1,32 µM,16 µM,32 µM,128 µM,16 µM,32 µM,16 µM,32 µM,32 µM,64 µM,32 µM,4 µM,4 µM,1 µM,1 µM,16 µM,64 µM,32 µM,0.25 µM,1 µM,MIC [4]: 32 µM; MIC [10]: 0.13 µM; MIC [13]: 0.06 µM; MIC [17]: 1 µM
CS(=O)(=O)Nc1cccc([C@@H](N)C(=O)N[C@@H]2C(=O)N3C(C(=O)O)=C(C(F)(F)F)CC[C@H]23)c1,16 µM,4 µM,16 µM,32 µM,8 µM,16 µM,2 µM,16 µM,16 µM,16 µM,32 µM,2 µM,2 µM,0.5 µM,2 µM,8 µM,64 µM,16 µM,0.5 µM,1 µM,MIC [10]: 0.13 µM; MIC [13]: 0.06 µM; MIC [26]: 16 µM; MIC [17]: 2 µM
N[C@@H](C(=O)N[C@@H]1C(=O)N2C(C(=O)O)=C(Cl)CS[C@H]12)c1ccccc1 [CEFACLOR ANHYDROUS],128 µM,8 µM,32 µM,128 µM,64 µM,128 µM,32 µM,64 µM,128 µM,64 µM,128 µM,1 µM,0.5 µM,1 µM,2 µM,128 µM,128 µM,128 µM,0.25 µM,2 µM,MIC [10]: 0.5 µM; MIC [13]: 0.06 µM; MIC [26]: 32 µM; MIC [17]: 0.5 µM
Cc1cccc([C@@H](N)C(=O)N[C@@H]2C(=O)N3C(C(=O)O)=C(C(F)(F)F)CC[C@H]23)c1,4 µM,4 µM,16 µM,32 µM,8 µM,4 µM,32 µM,16 µM,16 µM,16 µM,32 µM,2 µM,1 µM,2 µM,1 µM,8 µM,32 µM,16 µM,1 µM,4 µM,MIC [10]: 0.25 µM; MIC [13]: 0.03 µM; MIC [26]: 8 µM; MIC [17]: 8 µM
N[C@@H](C(=O)N[C@@H]1C(=O)N2C(C(=O)O)=C(C(F)(F)F)CC[C@H]12)c1ccc(Cl)c(Cl)c1,64 µM,128 µM,128 µM,128 µM,32 µM,8 µM,128 µM,64 µM,64 µM,128 µM,128 µM,2 µM,0.5 µM,32 µM,2 µM,32 µM,128 µM,128 µM,1 µM,16 µM,MIC [10]: 0.13 µM; MIC [13]: 0.02 µM; MIC [26]: 16 µM; MIC [17]: 32 µM
N[C@@H](C(=O)N[C@@H]1C(=O)N2C(C(=O)O)=C(C(F)(F)F)CC[C@H]12)c1ccc(O)c(Cl)c1,8 µM,1 µM,8 µM,16 µM,4 µM,8 µM,2 µM,4 µM,4 µM,4 µM,16 µM,0.5 µM,1 µM,0.5 µM,0.5 µM,4 µM,32 µM,4 µM,0.13 µM,1 µM,MIC [10]: 0.06 µM; MIC [13]: 0.03 µM; MIC [26]: 4 µM; MIC [17]: 0.125 µM
N[C@@H](C(=O)N[C@@H]1C(=O)N2C(C(=O)O)=C(C(F)(F)F)CC[C@H]12)c1ccccc1,32 µM,2 µM,4 µM,16 µM,4 µM,8 µM,4 µM,8 µM,4 µM,8 µM,8 µM,1 µM,0.5 µM,0.5 µM,1 µM,32 µM,32 µM,4 µM,0.25 µM,1 µM,MIC [10]: 0.25 µM; MIC [13]: 0.03 µM; MIC [26]: 16 µM; MIC [17]: 0.25 µM
Nc1ccc([C@@H](N)C(=O)N[C@@H]2C(=O)N3C(C(=O)O)=C(C(F)(F)F)CC[C@H]23)cc1,64 µM,4 µM,16 µM,32 µM,32 µM,64 µM,8 µM,16 µM,16 µM,16 µM,32 µM,1 µM,2 µM,0.5 µM,1 µM,8 µM,64 µM,16 µM,0.5 µM,1 µM,MIC [26]: 16 µM; MIC [17]: 0.25 µM; MIC [28]: No growth; MIC [27]: No growth
N[C@@H](C(=O)N[C@@H]1C(=O)N2C(C(=O)O)=C(C(F)(F)F)CC[C@H]12)c1cccc(Br)c1,16 µM,32 µM,64 µM,128 µM,16 µM,8 µM,16 µM,16 µM,16 µM,128 µM,64 µM,1 µM,1 µM,4 µM,0.5 µM,16 µM,16 µM,32 µM,0.25 µM,4 µM,MIC [10]: 0.13 µM; MIC [13]: 0.13 µM; MIC [26]: 8 µM; MIC [17]: 4 µM
